Patent US20150246141A1, “DIAGNOSTIC AGENTS WITH ENHANCED SENSITIVITY/SPECIFICITY” (BEN-GURION UNIVERSITY OF THE NEGEV RESEARCH AND DEVELOPMENT …, priority 2012, published 2015)

Tests used:
[1] = system: HT29 tumors; experiment: Intraluminal administration to mouse HT-29 tumor models, NIR imaging; assay type: in vivo, female athymic nude mice
Method: 20 min later the colon was washed extensively with PBS and then were allowed to recover for 3 h. Then, the mice were sacrificed and the colons were removed. Each colon was spread on a clear film, and imaging was performed using the Odyssey® Infrared Imaging System (Li-Cor Biosciences, Lincoln, Nebr., USA.), with excitation wavelength of 780 nm and emission wavelength of 800 nm Results:
FIGS. 4C and 4D provide results of similarly treated animals, 2 hours post-administration.

[2] = system: cancerous colorectal tissue; experiment: In situ labeling of surgically excised human colorectal cancer tissue specimens; conditions: PBS, 0.2 mg/ml; 20 minutes incubation, washed three times
Method: Polymer solution was dropped onto fresh surgical tissue specimens that were received 15 minutes after surgical excision. After 20 minutes of incubation with the polymeric probe, tissues were washed three times with a large volume of PBS. Tissues were then imaged immediately using the Odyssey® Infrared Imaging System (Li-Cor Biosciences, Lincoln, Nebr., USA.) with excitation wavelength of 780 nm and emission wavelength of 800 nm.

[3] = system: LS174T tumors; experiment: Intraluminal (intracolonic) administration to mice bearing rectal LS174T tumors, NIR imaging of excised colon; assay type: in vivo, female athymic nude mice
Method: […] Then, the mice were sacrificed and the colons were removed. Each colon was spread on a clear film, and imaging was performed using the Odyssey® Infrared Imaging System (Li-Cor Biosciences, Lincoln, Nebr., USA.), with excitation wavelength of 780 nm and emission wavelength of 800 nm Results:

[4] = system: LS-174T human colorectal adenocarcinoma; experiment: Murine orthotopic colorectal tumor model LS-174T, intraluminal instillation, imaging of excised colon and organs; assay type: in vivo, female athymic nude mice; conditions: polymer applied intraluminally
Method: The murine orthotopic colorectal tumor model LS-174T human colorectal adenocarcinoma cells (3×10^7 cells) were injected (600 μL) into the descending colonic wall of 13 anesthetized, female athymic nude mice, after an over night fast. […] Histopathological examination was performed on paraffin fixed colonic tissue specimens, after an H&E stain and verified that the carcinoma infiltrated within the mucosa, submucosa, and muscular layer
The mice were sacrificed 3 hrs post treatment, their colons exteriorized, separated, cut open, spread on a transparent film with the mucosal aspects upwards, and imaged by the Odyssey® Infrared Imaging System (Li-Cor Biosciences, Lincoln, Nebr., USA.) with excitation wavelength of 780 nm and emission wavelength of 800 nm.

[5] = immediately post administration of 0.1 mg/ml (200 μg)

“HPMA copolymer bearing IR783-S-Ph-COOH [P-(AP-IR783)]” was tested, and the “staining of region 4 (no tumors macroscopically; tumors in the submucosa)” value [1, 5] was “stained intensely”, the “staining of surface exposed regions (boxes 2, 3)” value [1, 5] was “stained intensely” and the “accumulation in cancerous tissue” value ([1]; polymer applied intraluminally, HT-29 tumor model) was “Selective accumulation”. The “binding to near healthy tissue” value [2] was “very low binding”, the “staining at cancerous region in the tissue (polyp and tumor)” value [2] was “markedly intense staining” and the “background staining in control mice without tumors” value ([3]; 40 μg per mouse (0.2 mg/ml), images taken at 4 hours following washing) was “very little background staining”. The “staining in samples taken from mice having tumors” value ([3]; 40 μg per mouse (0.2 mg/ml), tumors verified by pathologic evaluation) was “clear staining was evident”, the tumor associated-vasculature staining ([3]; intraluminal application) was “staining was evident” and the “accumulation in cancerous tissue” value ([3]; polymer applied intraluminally, LS174T tumor model) was “Selective accumulation”. For the same substance, the “accumulation in cancerous tissue” value [4] was “Selective accumulation”.
